Assay results from patent US20230129364A1, “PYRROLIDINE DERIVATIVE, AND PHARMACEUTICAL COMPOSITION FOR PREVENTING OR TREATING BETA-AMYLOID OR TAU PROTEIN-ASSOCIATED DISEASES CONTAINING SAME” (YONSEI UNIVERSITY, UNIVERSITY - INDUSTRY FOUNDATION (UIF), priority 2019, published 2023).

Legend:
P-Tau AT8 (S202, T205) = target: T1, P-Tau AT8 (S202, T205) (Homo sapiens, UniProt P10636, P618L); assay: Phosphorylated tau degradation in HEK293T P301L mutant cell line, Western blot, P-Tau AT8; assay type: cell-based; settings: 72 hours, HEK293T P301L cells, Western blot quantified with Image J
T1 construct: host or cells: HEK293T
T1 sequence (P10636 1-383 isoform P10636-6 P243L): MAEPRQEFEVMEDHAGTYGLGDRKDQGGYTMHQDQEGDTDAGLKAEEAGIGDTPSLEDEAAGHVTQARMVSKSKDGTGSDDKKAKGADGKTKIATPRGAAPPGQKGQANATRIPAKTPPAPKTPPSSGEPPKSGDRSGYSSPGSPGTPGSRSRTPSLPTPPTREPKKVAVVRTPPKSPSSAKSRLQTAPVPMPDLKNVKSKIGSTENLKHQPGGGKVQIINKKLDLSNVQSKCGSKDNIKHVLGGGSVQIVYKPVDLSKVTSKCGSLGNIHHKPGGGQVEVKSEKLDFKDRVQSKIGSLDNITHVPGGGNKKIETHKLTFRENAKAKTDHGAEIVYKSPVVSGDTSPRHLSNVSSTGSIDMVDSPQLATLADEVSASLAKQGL
Excerpt: (§1) Specifically, the pRK5-EGFP-Tau P301L vector from Addgene (Addgene, MA, USA) was purchased and used in order to stably express P301L, which is a known representative mutation of pathological tau, in HEK293T cells. The P301L vector was inserted into HEK293T cells using a FuGENE HD transfection reagent (Promega, WI, USA) and then stabilized. The cells were removed therefrom and then only the cells into which the vector was inserted were isolated using a fluorescence-activated cell sorter (BD FACS Aria III, BD Bioscience, NJ, USA). After the isolated cells were incubated for 2 to 3 days, they were removed again and separated and cultured using a FACS twice to finally obtain a HEK293T P301 mutant cell line.
(§2) The obtained cells were seeded in each well of a 6-well plate and stabilized for 18 hours, and then each well was treated with the compound of Example 1 such that the final concentration reached 1 or 10 μM. The control group was treated with the same concentration (0.01%) of DMSO used as the solvent of the compound of Example. 72 hours later, the protein was extracted with a lysis buffer and quantified, and then Western blot was performed. A protein sample was electrophoresed on a 4-20% mini-PROTEIN TGX precast protein gel (Bio-Rad, CA, USA) and transferred to a PVDF membrane (Immobilon-P, Merck, Darmstadt, Germany). The primary antibodies used herein were P-Tau AT8 (#MN1020), P-Tau S396 (#44-752G), and P-Tau S356 (#44-751G) from ThermoFisher scientific (MA, USA), and GAPDH (SC-47724) from SANTA CRUZ Biotechnology (TX, USA). The secondary antibody used herein was rabbit/mouse IgG from GeneTex (CA, USA). The image obtained through ImageQuant LAS 4000 (GE healthcare, IL, USA) and the result of quantification using an Image J program are shown in FIG. 1.

P-Tau (S356) = target: T2, P-Tau (S356) (Homo sapiens, UniProt P10636, P618L); assay: Phosphorylated tau degradation in HEK293T P301L mutant cell line, Western blot, P-Tau S356; assay type: cell-based; settings: 72 hours, HEK293T P301L cells, Western blot quantified with Image J
T2 construct: host or cells: HEK293T
T2 sequence (P10636 1-383 isoform P10636-6 P243L): as above
Excerpt: as §1, §2

pathological (P301S) tau = target: T3, pathological (P301S) tau (Homo sapiens, UniProt P10636, P618S); assay: SPR binding affinity of tau PROTAC to P301S tau; settings: CM5 sensor chip, concentration-dependent kinetic assay, read-out: binding affinity (Ka) to the P301S tau
T3 construct: made in house; host or cells: Star pLysS cells (E. coli), pRSET-B vector, IPTG induction
T3 sequence (P10636 1-441 isoform P10636-8 P301S): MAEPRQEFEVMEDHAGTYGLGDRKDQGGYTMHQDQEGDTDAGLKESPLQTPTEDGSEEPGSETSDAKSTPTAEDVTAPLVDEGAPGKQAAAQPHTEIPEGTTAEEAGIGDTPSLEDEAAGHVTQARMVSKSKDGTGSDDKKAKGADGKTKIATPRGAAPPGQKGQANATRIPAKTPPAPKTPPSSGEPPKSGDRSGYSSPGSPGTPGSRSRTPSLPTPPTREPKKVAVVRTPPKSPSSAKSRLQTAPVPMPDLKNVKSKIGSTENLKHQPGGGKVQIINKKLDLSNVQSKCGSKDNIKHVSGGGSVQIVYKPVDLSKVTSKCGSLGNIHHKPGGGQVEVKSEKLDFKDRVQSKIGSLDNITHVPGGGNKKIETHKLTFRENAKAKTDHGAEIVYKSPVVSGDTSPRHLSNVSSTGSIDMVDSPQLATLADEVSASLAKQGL
Procedure: (§3) The following experiment was performed to verify that the compound according to the present invention selectively degrades only phosphorylated tau. In order to biophysically analyze selective binding of the tau PROTAC to P301S, which is known as a representative mutant of pathological tau, non-pathological (WT) tau and pathological (P301S) tau were cloned into pRSET-B vectors to obtain plasmids. Star pLysS cells were used to overexpress proteins and 1 mM IPTG was added to the medium at an OD600 of 0.4 to 0.6. The intracellular proteins were extracted from the cells lysed in a lysis buffer through heat shock (95° C.), and WT tau and P301S tau were obtained at a high purity (>95%) using cation exchange chromatography and size exclusion chromatography.
(§4) Whether or not the obtained proteins bound to the tau PROTAC was determined through an SPR experiment. A CM5 sensor chip including dextran attached thereto was used, tau PROTAC was allowed to flow and the binding affinity between the protein and the compound was determined based on a response unit (RU). The binding affinity (Ka) to the protein was measured using concentration-dependent kinetic assay. The results of measurement of binding affinity between the tau PROTAC compound and non-pathological WT Tau or pathological P301S tau are shown in FIG. 2. […]

P-Tau (S396) = target: T4, P-Tau (S396) (Homo sapiens, UniProt P10636, P618L); assay: Phosphorylated tau degradation in HEK293T P301L mutant cell line, Western blot, P-Tau S396; assay type: cell-based; settings: 72 hours, HEK293T P301L cells, Western blot quantified with Image J
T4 construct: host or cells: HEK293T
T4 sequence (P10636 1-383 isoform P10636-6 P243L): as the sequence (P10636 1-383 isoform P10636-6 P243L) above
Excerpt: as §1, §2

[1] = target: T5, non-pathological (WT) tau (Homo sapiens, UniProt P10636); assay: SPR binding affinity of tau PROTAC to WT tau; settings: CM5 sensor chip, concentration-dependent kinetic assay, nonpathological WT tau, read-out: binding affinity (Ka) to tau
T5 construct: made in house; host or cells: Star pLysS cells (E. coli), pRSET-B vector, IPTG induction
T5 sequence (P10636 1-441 isoform P10636-8): as the sequence (P10636 1-441 isoform P10636-8 P301S) above, with S301P counted along it
Procedure: as §3, §4

degradation activity compared to the control group, P-Tau AT8 (S202, T205) (P-Tau AT8 (S202, T205); 10 μM)	phosphorylated tau degradation activity, P-Tau (S356) (P-Tau (S356); 10 μM)	Kd (pathological (P301S) tau)	degradation activity, P-Tau (S396) (P-Tau (S396); 1 μM)	degradation activity, P-Tau (S396) (P-Tau (S396); 10 μM)	Kd [1]	degradation activity compared to the control group, P-Tau AT8 (S202, T205) (P-Tau AT8 (S202, T205); 1 μM)	phosphorylated tau degradation activity, P-Tau (S356) (P-Tau (S356); 1 μM)	SMILES
26%	81%	42 µM	67%	67%	190 µM	–	–	CCN1C(=O)/C(=C/c2cn(Cc3cn(CCOCCOCCOCC(=O)Nc4cccc5c4C(=O)N(C4CCC(=O)NC4=O)C5=O)nn3)c3cccnc23)NC1=S (stereo not shown) [TAU-1 PROTAC, (Z)—N-(2-(2,6-dioxopiperidin-3-yl)-1,3-dioxoisoindolin-4-yl)-2-(2-(2-(2-(4-((3-((1-ethyl-5-oxo-2-thioxoimidazolidin-4-ylidene)methyl)-1H-pyrrolo[3,2-b]pyridin-1-yl)methyl)-1H-1,2,3-triazol-1-yl)ethoxy)ethoxy)ethoxy)acetamide]
53%	80%	18.7 µM	30%	–	199 µM	59%	62%	CCN1C(=O)/C(=C/c2cn(Cc3cn(CCOCCOCC(=O)Nc4cccc5c4C(=O)N(C4CCC(=O)NC4=O)C5=O)nn3)c3ccccc23)NC1=S (stereo not shown) [TAU-2 PROTAC, (Z)—N-(2-(2,6-dioxopiperidin-3-yl)-1,3-dioxoisoindolin-4-yl)-2-(2-(2-(4-((3-((1-ethyl-5-oxo-2-thioxoimidazolidin-4-ylidene)methyl)-1H-indol-1-yl)methyl)-1H-1,2,3-triazol-1-yl)ethoxy)ethoxy)acetamide]
